Source: patent US11091514B2, “Peptide macrocycles and use thereof in the treatment of bacterial infections” (Hoffmann-La Roche Inc., priority 2017, dated 2021)

System: A. baumannii strain ATCC19606
Type: cell-based, Acinetobacter baumannii
Settings: ATCC19606, 20 h
Protocol: The in vitro antimicrobial activity of the compounds was determined through microbroth minimum inhibitory concentration (MIC) methodology performed according to the Clinical and Laboratory Standard Institute guidelines (CLSI-M07-A9 January 2012. Methods for Dilution Antimicrobial Susceptibility Tests for Bacteria That Grow Aerobically; Approved Standard Ninth Edition, Clinical and Laboratory Standards Institute, Wayne/PA, US and the CLSI-M100-S24 January 2014. Performance Standards for Antimicrobial Susceptibility Testing; Approved Standard—Fourth Informational Supplement, Clinical and Laboratory Standards Institute, Wayne/PA, US).
The compound stock solution was freshly prepared at 10× the required top concentration for the MIC determination, i.e. at 1280 mg/L, by reconstitution of the dry compound in 50:50 water:DMSO.
Polystyrene non-treated 96 wells microtiter plates were used for preparing panel containing compound serial twofold diluted at two times the final testing concentration (e.g. range from 64 to 0.06 μg/ml) in cation adjusted Mueller Hinton broth medium (CAMHB).
Inoculum was prepared by the “direct colony suspension method”. Colonies of A. baumannii ATCC19606 or clinical isolates were suspended in saline solution and adjusted to 0.5 McFarland, diluted 100 times in CAMHB broth and 50 μl added to each well (final concentration of cells˜5×10^(5) CFU/ml and Final volume/well of 100 μl). Microtiter plates were sealed and incubated at 35±2° C.
MICs values were read after 20 hours of incubation and recorded as the lowest concentration of the antimicrobial that inhibits more or equal to 80% of growth of the organism as detected by the unaided eye and using a microtiter plate optical density reader (OD 600 nm).
Table 1 provides the minimum inhibitory concentration (MIC) in microgram per milliliter of the compounds of present invention obtained against the A. baumannii strain ATCC19606.

SMILES | ATCC19606 MIC (minimum inhibitory concentration) [µg/mL]
CN1C(=O)[C@H](CCCCN)NC(=O)[C@H](CCCN)NCc2cccc(c2)-c2cccc(Cl)c2CNC(=O)[C@@H]1Cc1c[nH]c2ccccc12 [Example 6, (11S,14S,17S)-14-(4-Amino-butyl)-17-(3-amino-propyl)-6-chloro-11-(1H-indol-3-ylmethyl)-12-methyl-9,12,15,18-tetraaza-tricyclo[18.3.1.0*2,7]tetracosa-1(23),2(7),3,5,20(24),21-hexaene-10,13,16-trione] | 32
CN1C(=O)[C@H](CCCCN)NC(=O)[C@H](CCCN)NCc2cccc(c2)-c2ccc(C(F)(F)F)cc2CNC(=O)[C@@H]1Cc1c[nH]c2ccccc12 [Example 3, (11S,14S,17S)-14-(4-Amino-butyl)-17-(3-amino-propyl)-11-(1H-indol-3-ylmethyl)-12-methyl-5-trifluoromethyl-9,12,15,18-tetraaza-tricyclo[18.3.1.0*2,7]tetracosa-1(24),2(7),3,5,20,22-hexaene-10,13,16-trione] | 0.5
CN1C(=O)[C@H](CCCCN)NC(=O)[C@H](CCCN)NCc2cccc(c2)-c2ccccc2CNC(=O)[C@@H]1Cc1c[nH]c2ccccc12 [Example 1, (11S,14S,17S)-14-(4-Amino-butyl)-17-(3-amino-propyl)-11-(1H-indol-3-ylmethyl)-12-methyl-9,12,15,18-tetraaza-tricyclo[18.3.1.0*2,7]tetracosa-1(24),2(7),3,5,20,22-hexaene-10,13,16-trione] | 32
COc1ccc2c(c1)CNC(=O)[C@H](Cc1c[nH]c3ccccc13)N(C)C(=O)[C@H](CCCCN)NC(=O)[C@H](CCCN)NCc1cccc-2c1 [Example 9, (11S,14S,17S)-14-(4-Amino-butyl)-17-(3-amino-propyl)-11-(1H-indol-3-ylmethyl)-5-methoxy-12-methyl-9,12,15,18-tetraaza-tricyclo[18.3.1.0*2,7]tetracosa-1(23),2(7),3,5,20(24),21-hexaene-10,13,16-trione] | 4
CN1C(=O)[C@H](CCCCN)NC(=O)[C@H](CCCN)NCc2cccc(c2F)-c2ccccc2CNC(=O)[C@@H]1Cc1c[nH]c2ccccc12 [Example 10, (11S,14S,17S)-14-(4-Amino-butyl)-17-(3-amino-propyl)-24-fluoro-11-(1H-indol-3-ylmethyl)-12-methyl-9,12,15,18-tetraaza-tricyclo[18.3.1.0*2,7]tetracosa-1(23),2(7),3,5,20(24),21-hexaene-10,13,16-trione] | 16
CN1C(=O)[C@H](CCCCN)NC(=O)[C@H](CCCN)NCc2cccc(c2)-c2ccc(Cl)cc2CNC(=O)[C@@H]1Cc1c[nH]c2ccccc12 [Example 5, (11S,14S,17S)-14-(4-Amino-butyl)-17-(3-amino-propyl)-5-chloro-11-(1H-indol-3-ylmethyl)-12-methyl-9,12,15,18-tetraaza-tricyclo[18.3.1.0*2,7]tetracosa-1(23),2(7),3,5,20(24),21-hexaene-10,13,16-trione] | 4
CN1C(=O)[C@H](CCCCN)NC(=O)[C@H](CCCN)NCc2cccc(c2)-c2c(cccc2C(F)(F)F)CNC(=O)[C@@H]1Cc1c[nH]c2ccccc12 [Example 2, (11S,14S,17S)-14-(4-Amino-butyl)-17-(3-amino-propyl)-11-(1H-indol-3-ylmethyl)-12-methyl-3-trifluoromethyl-9,12,15,18-tetraaza-tricyclo[18.3.1.0*2,7]tetracosa-1(24),2(7),3,5,20,22-hexaene-10,13,16-trione] | 2
Cc1cccc2c1-c1cccc(c1)CN[C@@H](CCCN)C(=O)N[C@@H](CCCCN)C(=O)N(C)[C@@H](Cc1c[nH]c3ccccc13)C(=O)NC2 [Example 4, (11S,14S,17S)-14-(4-Amino-butyl)-17-(3-amino-propyl)-11-(1H-indol-3-ylmethyl)-3,12-dimethyl-9,12,15,18-tetraaza-tricyclo[18.3.1.0*2,7]tetracosa-1(23),2(7),3,5,20(24),21-hexaene-10,13,16-trione] | 32
CN1C(=O)[C@H](CCCCN)NC(=O)[C@H](CCCN)NCc2cccc(c2)-c2cc(C(F)(F)F)ccc2CNC(=O)[C@@H]1Cc1c[nH]c2ccccc12 [Example 8, (11S,14S,17S)-14-(4-Amino-butyl)-17-(3-amino-propyl)-11-(1H-indol-3-ylmethyl)-12-methyl-4-trifluoromethyl-9,12,15,18-tetraaza-tricyclo[18.3.1.0*2,7]tetracosa-1(24),2(7),3,5,20,22-hexaene-10,13,16-trione] | 4
Cc1ccc2c(c1)CNC(=O)[C@H](Cc1c[nH]c3ccccc13)N(C)C(=O)[C@H](CCCCN)NC(=O)[C@H](CCCN)NCc1cccc-2c1 [Example 7, (11S,14S,17S)-14-(4-Amino-butyl)-17-(3-amino-propyl)-11-(1H-indol-3-ylmethyl)-5,12-dimethyl-9,12,15,18-tetraaza-tricyclo[18.3.1.0*2,7]tetracosa-1(23),2(7),3,5,20(24),21-hexaene-10,13,16-trione] | 1
CN1C(=O)[C@H](CCCCN)NC(=O)[C@H](CCCN)NCc2ccnc(c2)-c2ccc(Cl)cc2CNC(=O)[C@@H]1Cc1c[nH]c2ccccc12 [Example 11, (11S,14S,17S)-14-(4-Amino-butyl)-17-(3-amino-propyl)-5-chloro-11-(1H-indol-3-ylmethyl)-12-methyl-9,12,15,18,23-pentaaza-tricyclo[18.3.1.0*2,7]tetracosa-1(23),2(7),3,5,20(24),21-hexaene-10,13,16-trione] | 32
